Measured values: ChEMBL document CHEMBL3763146 (J Med Chem, 2016)

Assays:
[1] = Oral bioavailability in rat at 2 mg/kg; format: ADME, organism-based; conditions: in vivo
[2] = Stability in rat plasma assessed as parent compound remaining at 24 hrs by LC-MS analysis; format: ADME, cell-free; conditions: read-out: Stability
[3] = target: T1, Beta-3 adrenergic receptor (Homo sapiens, UniProt P13945); test: Agonist activity at human beta3 adrenergic receptor expressed in CHO cells assessed as accumulation of cAMP after 30 mins by TR-FRET assay relative to (R)-(-)-isoproterenol; format: functional, cell-based
Target sequence in this assay (P13945 whole entry, looked up): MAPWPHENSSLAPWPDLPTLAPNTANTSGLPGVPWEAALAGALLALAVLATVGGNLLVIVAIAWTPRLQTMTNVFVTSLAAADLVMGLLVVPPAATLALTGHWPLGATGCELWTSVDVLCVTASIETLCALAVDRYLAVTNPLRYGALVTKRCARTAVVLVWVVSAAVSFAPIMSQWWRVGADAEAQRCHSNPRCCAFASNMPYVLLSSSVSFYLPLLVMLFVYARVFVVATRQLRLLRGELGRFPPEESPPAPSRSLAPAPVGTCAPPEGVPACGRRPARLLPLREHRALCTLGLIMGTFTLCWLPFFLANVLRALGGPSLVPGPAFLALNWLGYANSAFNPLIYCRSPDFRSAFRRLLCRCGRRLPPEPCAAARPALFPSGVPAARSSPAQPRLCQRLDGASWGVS

[4] = Stability in rhesus monkey plasma assessed as parent compound remaining at 24 hrs by LC-MS analysis; format: ADME, cell-free, Macaca mulatta; conditions: read-out: Stability
[5] = Intrinsic clearance in dog liver microsomes; format: ADME, Canis lupus familiaris; conditions: read-out: CLH
[6] = Stability in human plasma assessed as parent compound remaining at 24 hrs by LC-MS analysis; format: ADME, cell-free; conditions: read-out: Stability
[7] = target: Beta-2 adrenergic receptor (Homo sapiens, UniProt P07550)
Description: Displacement of [125]I-cyanopindolol from human recombinant beta2 adrenergic receptor after 1 hr by scintillation counting method

[8] = target: Sodium-dependent serotonin transporter (Homo sapiens, UniProt P31645); test: Inhibition of human SERT expressed in HEK293 cells preincubated for 30 mins followed by fluorescent substrate addition measured after 30 mins by plate reader analysis; format: cell-based
[9] = Plasma clearance in dog at 0.5 mg/kg, iv or 2 mg/kg, po; format: ADME, organism-based, Canis lupus familiaris
[10] = Intrinsic clearance in rhesus monkey liver microsomes; format: ADME, Macaca mulatta; conditions: read-out: CLH
[11] = system: Rattus norvegicus; test: Dose normalized total AUC in rat at 2 mg/kg, po; format: ADME, organism-based; conditions: in vivo
[12] = target: Sodium channel protein type 2 subunit alpha (Homo sapiens, UniProt Q99250); test: Inhibition of human Nav1.2 channel expressed in Xenopus oocytes by two-intracellular microelectrode voltage clamp method; format: cell-based
[13] = target: Sodium-dependent dopamine transporter (Homo sapiens, UniProt Q01959); test: Inhibition of human dopamine transporter
[14] = Plasma clearance in rat at 1 mg/kg, iv or 2 mg/kg, po; format: ADME, organism-based
[15] = Stability in dog plasma assessed as parent compound remaining at 24 hrs by LC-MS analysis; format: ADME, cell-free, Canis lupus familiaris; conditions: read-out: Stability
[16] = Oral bioavailability in dog at 2 mg/kg; format: ADME, organism-based, Canis lupus familiaris; conditions: in vivo
[17] = Half life in dog at 0.5 mg/kg, iv or 2 mg/kg, po; format: ADME, organism-based, Canis lupus familiaris; conditions: in vivo
[18] = Intrinsic clearance in human liver microsomes; format: ADME; conditions: read-out: CLH
[19] = Induction of phospholidosis in human HepG2 cells incubated overnight by […] in presence of fluorescent labeled phospholipid probe NBD-PE; format: cell-based; conditions: read-out: A50
[20] = target: Voltage-dependent L-type calcium channel subunit alpha-1C (Homo sapiens, UniProt Q13936); test: Displacement of [3H]-diltiazem from human Cav1.2 channel
[21] = Half life in rat at 1 mg/kg, iv or 2 mg/kg, po; format: ADME, organism-based; conditions: in vivo
[22] = target: Beta-1 adrenergic receptor (Homo sapiens, UniProt P08588)
Description: Displacement of [125]I-cyanopindolol from recombinant human beta1 adrenergic receptor after 1 hr by scintillation counting method

[23] = Intrinsic clearance in rat liver microsomes; format: ADME; conditions: read-out: CLH
[24] = target: T1, Beta-3 adrenergic receptor; test: Agonist activity at human beta3 adrenergic receptor expressed in CHO cells assessed as accumulation of cAMP after 30 mins by TR-FRET assay; format: functional, cell-based
Target sequence in this assay (P13945 whole entry): as the sequence (P13945 whole entry, looked up) above

[25] = system: Canis familiaris; test: Dose normalized total AUC in dog at 2 mg/kg, po; format: ADME, organism-based, Canis lupus familiaris; conditions: in vivo
[26] = system: Rhesus monkey; test: Dose normalized fAUC in rhesus monkey at 2 mg/kg, po; format: ADME, organism-based, Macaca mulatta; conditions: in vivo
[27] = system: Rhesus monkey; test: Unbound clearance in rhesus monkey at 0.5 mg/kg, iv or 2 mg/kg, po; format: ADME, organism-based, Macaca mulatta; conditions: in vivo
[28] = target: Beta-3 adrenergic receptor (Canis lupus familiaris, UniProt O02662); test: Agonist activity at dog beta3 adrenergic receptor expressed in CHO cells assessed as accumulation of cAMP after 30 mins by TR-FRET assay; format: functional, cell-based
[29] = target: T1, Beta-3 adrenergic receptor; test: Agonist activity at human adrenergic beta3 receptor expressed in CHO cells assessed as accumulation of cAMP after 30 mins by TR-FRET assay in presence of 40% serum; format: functional, cell-based
Target sequence in this assay (P13945 whole entry): as the sequence (P13945 whole entry, looked up) above

[30] = target: Beta-3 adrenergic receptor (Rattus norvegicus) (UniProt P26255); test: Agonist activity at rat beta3 adrenergic receptor expressed in CHO cells assessed as accumulation of cAMP after 30 mins by TR-FRET assay relative to (R)-(-)-isoproterenol; format: functional, cell-based
[31] = system: Canis familiaris; test: Dose normalized fAUC in dog at 2 mg/kg, po; format: ADME, organism-based, Canis lupus familiaris; conditions: in vivo
[32] = target: T1, Beta-3 adrenergic receptor; test: Agonist activity at human adrenergic beta3 receptor expressed in CHO cells assessed as accumulation of cAMP after 30 mins by TR-FRET assay in presence of 40% serum relative to (R)-(-)-isoproterenol; format: functional, cell-based
Target sequence in this assay (P13945 whole entry, looked up): as above

[33] = Fraction unbound in rat at 1 mg/kg, iv or 2 mg/kg, po; format: ADME, organism-based; conditions: in vivo
[34] = system: Rattus norvegicus; test: Unbound clearance in rat at 1 mg/kg, iv or 2 mg/kg, po; format: ADME, organism-based; conditions: in vivo
[35] = target: Beta-3 adrenergic receptor (Macaca mulatta) (UniProt Q28524); test: Agonist activity at rhesus monkey beta3 adrenergic receptor expressed in CHO cells assessed as accumulation of cAMP after 30 mins by TR-FRET assay relative to (R)-(-)-isoproterenol; format: functional, cell-based
[36] = system: Rattus norvegicus; test: Dose normalized fAUC in rat at 2 mg/kg, po; format: ADME, organism-based; conditions: in vivo
[37] = system: Rhesus monkey; test: Dose normalized total AUC in rhesus monkey at 2 mg/kg, po; format: ADME, organism-based, Macaca mulatta; conditions: in vivo
[38] = target: Cytochrome P450 3A4 (Homo sapiens, UniProt P08684); test: Inhibition of CYP3A4 in human liver microsomes assessed as testosterone 6beta-hydroxylation; format: ADME
[39] = target: Cytochrome P450 2C9 (Homo sapiens, UniProt P11712); test: Inhibition of CYP2C9 in human liver microsomes assessed as diclofenac alpha'-hydroxylation; format: ADME
[40] = Plasma clearance in rhesus monkey at 0.5 mg/kg, iv or 2 mg/kg, po; format: ADME, organism-based, Macaca mulatta
[41] = Half life in rhesus monkey at 0.5 mg/kg, iv or 2 mg/kg, po; format: ADME, organism-based, Macaca mulatta; conditions: in vivo
[42] = Oral bioavailability in rhesus monkey at 2 mg/kg; format: ADME, organism-based, Macaca mulatta; conditions: in vivo
[43] = Distribution coefficient, logD of the compound at pH 7.4; format: physicochemical; conditions: octanol/water
[44] = target: Cytochrome P450 2D6 (Homo sapiens, UniProt P10635); test: Inhibition of CYP2D6 in human liver microsomes assessed as dextraomethorphan O-demethylation; format: ADME
[45] = system: Rattus norvegicus; test: Increase in detrusor muscle relaxation in iv infused Sprague-Dawley rat acetic acid-induced bladder hyperreflexia model assessed as decrease in micturition pressure measured over 30 to 45 mins; format: functional, organism-based
[46] = system: Canis familiaris; test: Unbound clearance in dog at 0.5 mg/kg, iv or 2 mg/kg, po; format: ADME, organism-based, Canis lupus familiaris; conditions: in vivo
[47] = target: T2, Beta-3 adrenergic receptor (Rattus norvegicus, UniProt P26255); test: Agonist activity at rat beta3 adrenergic receptor expressed in CHO cells assessed as accumulation of cAMP after 30 mins by TR-FRET assay in presence of 40% serum; format: functional, cell-based
[48] = target: Beta-3 adrenergic receptor (Rattus norvegicus) (UniProt P26255); test: Agonist activity at rat beta3 adrenergic receptor expressed in CHO cells assessed as accumulation of cAMP after 30 mins by TR-FRET assay in presence of 40% serum relative to (R)-(-)-isoproterenol; format: functional, cell-based
[49] = Fraction unbound in dog at 0.5 mg/kg, iv or 2 mg/kg, po; format: ADME, organism-based, Canis lupus familiaris; conditions: in vivo
[50] = target: T2, Beta-3 adrenergic receptor; test: Agonist activity at rat beta3 adrenergic receptor expressed in CHO cells assessed as accumulation of cAMP after 30 mins by TR-FRET assay; format: functional, cell-based
[51] = system: Rattus norvegicus; test: Increase in detrusor muscle relaxation in iv infused Sprague-Dawley rat acetic acid-induced bladder hyperreflexia model assessed as increase in functional bladder capacity measured over 30 to 45 mins; format: organism-based
[52] = target: Beta-3 adrenergic receptor (Macaca mulatta, UniProt Q28524); test: Agonist activity at rhesus monkey beta3 adrenergic receptor expressed in CHO cells assessed as accumulation of cAMP after 30 mins by TR-FRET assay; format: functional, cell-based
[53] = Fraction unbound in rhesus monkey at 0.5 mg/kg, iv or 2 mg/kg, po; format: ADME, organism-based, Macaca mulatta; conditions: in vivo

Chain of Sodium channel protein type 2 subunit alpha (Q99250 whole entry, looked up): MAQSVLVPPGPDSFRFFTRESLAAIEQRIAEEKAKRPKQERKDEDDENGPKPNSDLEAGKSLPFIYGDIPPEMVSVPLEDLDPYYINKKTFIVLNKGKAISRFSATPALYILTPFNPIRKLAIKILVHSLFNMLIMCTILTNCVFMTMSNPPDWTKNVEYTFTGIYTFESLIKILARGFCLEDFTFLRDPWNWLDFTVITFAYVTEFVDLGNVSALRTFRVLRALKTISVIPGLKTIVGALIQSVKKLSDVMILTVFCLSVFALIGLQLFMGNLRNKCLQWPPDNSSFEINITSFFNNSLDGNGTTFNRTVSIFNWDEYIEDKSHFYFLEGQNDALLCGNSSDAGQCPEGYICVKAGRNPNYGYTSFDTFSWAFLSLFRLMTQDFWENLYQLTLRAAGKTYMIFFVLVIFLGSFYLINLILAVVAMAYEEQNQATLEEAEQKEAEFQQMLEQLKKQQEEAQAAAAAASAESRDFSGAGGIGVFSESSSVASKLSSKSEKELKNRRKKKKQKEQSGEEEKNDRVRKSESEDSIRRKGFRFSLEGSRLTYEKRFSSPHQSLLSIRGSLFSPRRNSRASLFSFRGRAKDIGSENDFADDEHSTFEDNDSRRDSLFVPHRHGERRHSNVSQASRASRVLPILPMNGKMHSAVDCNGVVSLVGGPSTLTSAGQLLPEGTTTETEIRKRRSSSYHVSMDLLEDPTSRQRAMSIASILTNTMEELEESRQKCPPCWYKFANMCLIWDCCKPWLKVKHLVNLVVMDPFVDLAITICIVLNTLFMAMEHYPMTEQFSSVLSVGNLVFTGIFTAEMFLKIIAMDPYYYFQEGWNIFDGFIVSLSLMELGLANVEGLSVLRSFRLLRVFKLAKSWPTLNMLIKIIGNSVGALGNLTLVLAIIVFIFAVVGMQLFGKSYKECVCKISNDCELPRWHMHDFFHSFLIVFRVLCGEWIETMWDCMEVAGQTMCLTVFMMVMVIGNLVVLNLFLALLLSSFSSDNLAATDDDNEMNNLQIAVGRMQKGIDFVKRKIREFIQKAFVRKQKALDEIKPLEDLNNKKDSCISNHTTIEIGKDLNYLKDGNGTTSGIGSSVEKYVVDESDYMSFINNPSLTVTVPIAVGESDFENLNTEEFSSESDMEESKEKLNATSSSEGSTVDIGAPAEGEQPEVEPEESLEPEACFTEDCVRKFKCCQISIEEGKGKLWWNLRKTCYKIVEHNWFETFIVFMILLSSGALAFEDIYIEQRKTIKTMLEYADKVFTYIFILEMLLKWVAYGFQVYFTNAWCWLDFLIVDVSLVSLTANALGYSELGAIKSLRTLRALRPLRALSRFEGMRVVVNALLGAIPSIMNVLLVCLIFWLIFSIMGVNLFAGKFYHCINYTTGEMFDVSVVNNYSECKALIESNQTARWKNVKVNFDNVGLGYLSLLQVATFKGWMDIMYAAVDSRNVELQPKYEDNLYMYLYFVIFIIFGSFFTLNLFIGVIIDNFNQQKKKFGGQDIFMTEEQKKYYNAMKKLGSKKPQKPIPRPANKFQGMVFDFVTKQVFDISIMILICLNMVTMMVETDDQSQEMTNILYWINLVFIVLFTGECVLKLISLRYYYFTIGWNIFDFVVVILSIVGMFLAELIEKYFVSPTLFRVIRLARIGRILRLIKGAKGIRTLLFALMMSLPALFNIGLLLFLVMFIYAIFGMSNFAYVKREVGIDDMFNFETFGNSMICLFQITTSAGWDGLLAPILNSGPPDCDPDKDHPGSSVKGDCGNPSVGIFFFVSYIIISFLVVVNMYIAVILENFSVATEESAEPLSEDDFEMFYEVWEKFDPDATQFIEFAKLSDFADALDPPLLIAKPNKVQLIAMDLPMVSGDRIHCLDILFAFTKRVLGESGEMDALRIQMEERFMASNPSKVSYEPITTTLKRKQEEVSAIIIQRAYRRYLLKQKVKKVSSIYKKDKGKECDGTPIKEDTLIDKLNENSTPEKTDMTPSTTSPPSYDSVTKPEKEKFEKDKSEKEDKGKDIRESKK
Chain of Voltage-dependent L-type calcium channel subunit alpha-1C (Q13936 whole entry): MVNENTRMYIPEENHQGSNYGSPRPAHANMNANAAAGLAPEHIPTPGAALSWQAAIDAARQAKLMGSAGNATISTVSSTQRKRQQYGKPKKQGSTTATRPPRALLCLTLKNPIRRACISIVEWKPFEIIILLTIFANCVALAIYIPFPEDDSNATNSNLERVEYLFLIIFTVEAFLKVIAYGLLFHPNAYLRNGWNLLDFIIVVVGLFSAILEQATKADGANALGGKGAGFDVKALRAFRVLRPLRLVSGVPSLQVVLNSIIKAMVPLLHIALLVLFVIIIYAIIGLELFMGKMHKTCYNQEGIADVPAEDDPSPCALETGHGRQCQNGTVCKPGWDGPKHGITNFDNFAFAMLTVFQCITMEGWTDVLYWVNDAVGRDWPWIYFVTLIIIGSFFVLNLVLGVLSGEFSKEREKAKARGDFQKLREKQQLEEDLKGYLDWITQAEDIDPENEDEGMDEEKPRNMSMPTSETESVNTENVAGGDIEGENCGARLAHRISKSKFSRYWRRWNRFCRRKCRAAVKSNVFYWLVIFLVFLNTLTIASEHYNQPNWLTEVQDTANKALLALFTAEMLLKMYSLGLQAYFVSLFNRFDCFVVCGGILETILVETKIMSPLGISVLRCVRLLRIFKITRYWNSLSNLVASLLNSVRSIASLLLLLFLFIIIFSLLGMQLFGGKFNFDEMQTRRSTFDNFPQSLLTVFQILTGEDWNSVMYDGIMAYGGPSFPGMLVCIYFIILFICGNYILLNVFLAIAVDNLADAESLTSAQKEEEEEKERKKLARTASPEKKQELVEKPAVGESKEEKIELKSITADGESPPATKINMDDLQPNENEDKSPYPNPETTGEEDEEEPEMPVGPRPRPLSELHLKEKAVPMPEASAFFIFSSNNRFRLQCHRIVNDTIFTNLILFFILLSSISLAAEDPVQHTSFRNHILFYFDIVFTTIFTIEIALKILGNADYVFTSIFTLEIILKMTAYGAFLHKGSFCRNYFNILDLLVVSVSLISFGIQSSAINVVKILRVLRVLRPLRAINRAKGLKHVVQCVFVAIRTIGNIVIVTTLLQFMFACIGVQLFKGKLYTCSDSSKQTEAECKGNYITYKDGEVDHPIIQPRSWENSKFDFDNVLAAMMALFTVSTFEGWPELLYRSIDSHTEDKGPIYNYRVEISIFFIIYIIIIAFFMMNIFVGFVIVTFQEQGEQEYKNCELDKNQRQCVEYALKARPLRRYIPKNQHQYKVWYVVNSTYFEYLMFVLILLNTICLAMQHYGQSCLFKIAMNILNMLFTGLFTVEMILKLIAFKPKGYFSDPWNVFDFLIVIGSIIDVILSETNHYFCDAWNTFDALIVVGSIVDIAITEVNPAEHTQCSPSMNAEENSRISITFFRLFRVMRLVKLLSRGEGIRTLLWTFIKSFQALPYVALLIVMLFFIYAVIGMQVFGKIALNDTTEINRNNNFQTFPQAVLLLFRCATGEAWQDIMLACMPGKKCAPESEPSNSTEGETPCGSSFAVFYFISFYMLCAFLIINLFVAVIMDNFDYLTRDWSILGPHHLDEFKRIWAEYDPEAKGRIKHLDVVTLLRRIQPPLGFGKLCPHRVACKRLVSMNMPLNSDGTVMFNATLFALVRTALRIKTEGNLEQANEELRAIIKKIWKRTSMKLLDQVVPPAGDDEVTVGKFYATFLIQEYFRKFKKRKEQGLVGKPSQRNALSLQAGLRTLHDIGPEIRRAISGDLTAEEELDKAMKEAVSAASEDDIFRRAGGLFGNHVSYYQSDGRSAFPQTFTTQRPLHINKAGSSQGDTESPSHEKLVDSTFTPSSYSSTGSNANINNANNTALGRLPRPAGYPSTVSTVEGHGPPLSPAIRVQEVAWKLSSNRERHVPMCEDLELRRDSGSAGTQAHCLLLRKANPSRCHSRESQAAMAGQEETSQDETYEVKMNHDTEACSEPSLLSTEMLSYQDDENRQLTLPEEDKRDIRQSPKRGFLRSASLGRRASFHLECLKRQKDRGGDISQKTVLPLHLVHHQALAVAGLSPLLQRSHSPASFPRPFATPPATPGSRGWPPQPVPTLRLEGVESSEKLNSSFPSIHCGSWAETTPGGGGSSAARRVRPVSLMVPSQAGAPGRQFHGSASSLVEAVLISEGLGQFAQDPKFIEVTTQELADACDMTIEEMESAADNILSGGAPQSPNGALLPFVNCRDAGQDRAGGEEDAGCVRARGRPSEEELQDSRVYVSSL

## O=C(Nc1ccc(C[C@@H]2CC[C@H]([C@H](O)c3ccccc3)N2)cc1)[C@@H]1CCc2cccc(=O)n21
[1]
  bioavailability: 21%
[2]
  remaining at 24 h: 92%
[3]
  max activation: 94%
[4]
  remaining at 24 h: 72%
[5]
  CLint scaled: 13 mL/min/kg
[6]
  remaining at 24 h: 100%
[7]
  IC50: > 20 µM
[8]
  IC50: 7.1 µM
[9]
  clearance: 26 mL/min/kg
[10]
  CLint scaled: 137 mL/min/kg
[11]
  AUC/dose: 110 nM·h/mg/kg
[12]
  IC50: > 30 µM
[13]
  IC50: 4.8 µM
[14]
  clearance: 77 mL/min/kg
[15]
  remaining at 24 h: 92%
[16]
  bioavailability: 100%
[17]
  half-life: 6 h
[18]
  CLint scaled: 19 mL/min/kg
[19]
  AC50: 33 µM
[20]
  IC50: > 30 µM
[21]
  half-life: 3 h
[22]
  IC50: > 20 µM
[23]
  CLint scaled: 29 mL/min/kg
[24]
  EC50: 0.00062 µM
[25]
  AUC/dose: 1500 nM·h/mg/kg

## O=C(Cn1ncccc1=O)Nc1ccc(C[C@@H]2CC[C@H]([C@H](O)c3ccccc3)N2)cc1
[1]
  bioavailability: 14%
[26]
  fAUC/dose: 517 nM·h/mg/kg
[27]
  CL free: 33 mL/min/kg
[28]
  EC50: 0.047 µM
[2]
  remaining at 24 h: 95%
[29]
  EC50: 0.0059 µM
[3]
  max activation: 105%
[4]
  remaining at 24 h: 95%
[30]
  max activation: 79%
[5]
  CLint scaled: 11 mL/min/kg
[6]
  remaining at 24 h: 26%
[7]
  IC50: > 20 µM
[31]
  fAUC/dose: 612 nM·h/mg/kg
[32]
  max activation: 96%
[33]
  fraction unbound: 0.27
[8]
  IC50: 4.4 µM
[34]
  CL free: 148 mL/min/kg
[9]
  clearance: 7.4 mL/min/kg
[10]
  CLint scaled: < 10 mL/min/kg
[35]
  max activation: 91%
[36]
  fAUC/dose: 17 nM·h/mg/kg
[37]
  AUC/dose: 820 nM·h/mg/kg
[11]
  AUC/dose: 66 nM·h/mg/kg
[38]
  IC50: > 100 µM
[12]
  IC50: > 30 µM
[39]
  IC50: > 100 µM
[40]
  clearance: 21 mL/min/kg
[41]
  half-life: 9 h
[42]
  bioavailability: 46%
[43]
  logD: 1
[44]
  IC50: > 100 µM
[14]
  clearance: 40 mL/min/kg
[15]
  remaining at 24 h: 100%
[16]
  bioavailability: 18%
[17]
  half-life: 8 h
[18]
  CLint scaled: < 10 mL/min/kg
[45]
  Activity: Dose-dependent effect
[46]
  CL free: 15 mL/min/kg
[47]
  EC50: 1.06 µM
[19]
  AC50: 67 µM
[20]
  IC50: > 30 µM
[21]
  half-life: 5 h
[48]
  max activation: 99%
[49]
  fraction unbound: 0.51
[22]
  IC50: > 20 µM
[23]
  CLint scaled: < 15 mL/min/kg
[50]
  EC50: 0.615 µM
[51]
  Activity: Dose-dependent effect
[52]
  EC50: 0.0035 µM
[24]
  EC50: 0.0048 µM
[53]
  fraction unbound: 0.63
[25]
  AUC/dose: 1200 nM·h/mg/kg
